Test [1] concerns Trypanosoma brucei rhodesiense. In words: Antitrypanosomal activity against Trypanosoma brucei rhodesiense. It counts as functional, organism-based.
Test [2] relates to RAW264.7. The test can be described thus: Inhibition of LPS-induced NO production in mouse RAW264.7 cells. It counts as functional, cell-based.
Test [3] deals with Staphylococcus aureus. The test can be described thus: Antibacterial activity against methicillin resistant Staphylococcus aureus assessed as reduction in bacterial growth. It is filed as functional, organism-based.
Test [4] has as its system Trypanosoma brucei rhodesiense. The test can be described thus: Antitrypanosomal activity against Trypanosoma brucei rhodesiense IL-1501 assessed as inhibition of cell growth incubated for 69 hrs by AlamarBlue assay. It counts as functional, organism-based.
For test [5], the system named is Staphylococcus aureus. In words: Antibacterial activity against Staphylococcus aureus assessed as reduction in bacterial growth. It is filed as functional.
Test [6] has as its system Bacillus cereus. In words: Antibacterial activity against Bacillus cereus assessed as reduction in bacterial growth. It is filed as functional.
Test [7] has as its system Bacillus subtilis. The test can be described thus: Antibacterial activity against Bacillus subtilis assessed as reduction in bacterial growth. It counts as functional.
For test [8], the system named is Escherichia coli. In words: Antibacterial activity against Escherichia coli assessed as reduction in bacterial growth. It counts as functional.
In test [9] the target is E3 ubiquitin-protein ligase CBL-B (Homo sapiens, UniProt Q13191). The test can be described thus: Inhibition of recombinant Cbl-b (unknown origin) in presence of ATP incubated for 60 mins by ELISA analysis. (An ELISA detects its analyte on a solid surface through an enzyme-linked reagent.)
Sequence of E3 ubiquitin-protein ligase CBL-B (Q13191 whole entry): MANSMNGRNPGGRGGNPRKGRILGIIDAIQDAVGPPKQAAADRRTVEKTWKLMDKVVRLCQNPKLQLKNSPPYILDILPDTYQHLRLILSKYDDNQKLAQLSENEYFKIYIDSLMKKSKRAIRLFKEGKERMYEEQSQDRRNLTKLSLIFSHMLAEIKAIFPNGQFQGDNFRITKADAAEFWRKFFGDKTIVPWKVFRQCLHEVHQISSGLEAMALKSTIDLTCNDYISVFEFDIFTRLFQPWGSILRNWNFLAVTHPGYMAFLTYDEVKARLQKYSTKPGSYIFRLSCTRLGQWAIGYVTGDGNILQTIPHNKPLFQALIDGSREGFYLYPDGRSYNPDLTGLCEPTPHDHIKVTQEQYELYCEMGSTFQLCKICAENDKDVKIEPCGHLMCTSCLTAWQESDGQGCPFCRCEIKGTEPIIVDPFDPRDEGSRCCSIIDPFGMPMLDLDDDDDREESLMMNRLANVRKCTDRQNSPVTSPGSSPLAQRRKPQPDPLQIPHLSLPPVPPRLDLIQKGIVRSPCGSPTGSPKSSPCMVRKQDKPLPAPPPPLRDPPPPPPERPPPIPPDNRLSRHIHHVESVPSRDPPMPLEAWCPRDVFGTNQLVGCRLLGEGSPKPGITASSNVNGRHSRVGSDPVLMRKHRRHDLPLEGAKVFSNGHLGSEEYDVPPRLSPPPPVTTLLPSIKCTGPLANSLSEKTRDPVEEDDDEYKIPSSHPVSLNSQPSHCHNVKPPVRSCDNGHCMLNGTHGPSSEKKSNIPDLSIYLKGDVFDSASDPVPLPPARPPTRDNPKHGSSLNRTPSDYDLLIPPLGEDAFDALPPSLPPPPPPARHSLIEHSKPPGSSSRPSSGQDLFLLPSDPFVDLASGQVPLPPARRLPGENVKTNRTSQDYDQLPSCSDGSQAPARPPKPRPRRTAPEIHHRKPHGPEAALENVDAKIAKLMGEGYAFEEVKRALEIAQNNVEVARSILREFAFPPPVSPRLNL
Test [10] concerns HCT-8. The test can be described thus: Cytotoxicity against human HCT-8 cells assessed as inhibition of cell growth incubated for 48 hrs by MTT assay. It counts as functional, cell-based. Conditions: HCT-8, 48 h. On the technique in general: Formazan colour is commonly taken as a measure of viable cells.
Test [11] relates to Nannizzia gypsea. The test can be described thus: Antifungal activity against Microsporum gypseum assessed as reduction in fungal growth. It counts as functional.
A short description of test [12]: Antioxidant activity assessed as DPPH radical scavenging activity. It counts as functional. A general note: DPPH is a stable violet radical that fades when it is reduced.
For test [13], the system named is MDA-MB-231. In words: Growth inhibition of human MDA-MB-231 cells assessed inhibition of cell growth. It is filed as functional.
The subject of test [14] is HepG2. In words: Cytotoxicity against human HepG2 cells assessed as inhibition of cell growth. It counts as functional, cell-based.
The test system of test [15] is HL-60. The test can be described thus: Cytotoxicity against human HL-60 cells assessed as inhibition of cell growth. It is filed as functional, cell-based.
In test [16] the test system is Vibrio harveyi. The test can be described thus: Antimicrobial activity against Vibrio harveyi assessed as bacterial growth inhibition. It is filed as functional.
The subject of test [17] is Aspergillus sydowii. The test can be described thus: Antifungal activity against Aspergillus sydowii SCSIO 00305 assessed as inhibition of fungal growth. It is filed as functional, organism-based.
In test [18] the test system is Kocuria rhizophila. In words: Antibacterial activity against Kocuria rhizophila ATCC9341 assessed as reduction in bacterial growth. It is filed as functional.
Test [19] has as its system Staphylococcus aureus. The test can be described thus: Antibacterial activity against Staphylococcus aureus FDA 209P JC-1 assessed as reduction in bacterial growth. It is filed as functional.
Test [20] deals with P388. In words: Cytotoxicity against mouse P388 cells assessed as inhibition of cell growth. It is filed as functional, cell-based.
In test [21] the test system is Bacillus subtilis. The test can be described thus: Antibacterial activity against Bacillus subtilis PCI219 assessed as reduction in bacterial growth. It counts as functional.
Test [22] is described as follows: Inhibition of neuronal excitability in mouse Primary neocortical neuron assessed as reduction in 4-AP-induced SCO frequency measured for 1 hr by FLIPR assay. It is filed as functional, cell-based.
A short description of test [23]: Inhibition of neuronal excitability in mouse Primary neocortical neuron assessed as reduction in 4-AP-induced SCO amplitude measured for 1 hr by FLIPR assay. It counts as functional, cell-based.
The test system of test [24] is Kocuria rhizophila. In words: Antibacterial activity against Kocuria rhizophila KCTC 1915 assessed as reduction in bacterial growth incubated for 24 hrs by Mueller-Hinton broth based assay. It is filed as functional.
In test [25] the test system is Bacillus subtilis. In words: Antibacterial activity against Bacillus subtilis KCTC 1021 assessed as reduction in bacterial growth incubated for 24 hrs by Mueller-Hinton broth based assay. It is filed as functional.
For test [26], the system named is Staphylococcus aureus. In words: Antibacterial activity against Staphylococcus aureus KCTC 1927 assessed as reduction in bacterial growth incubated for 24 hrs by Mueller-Hinton broth based assay. It is filed as functional.

Values after ≈ are worked out from the molar mass of the structure shown.

We go through 23 compounds from ChEMBL document CHEMBL5385919, “A Survey of Recently Discovered Naturally Occurring Organohalogen Compounds” (J Nat Prod, 2024).

Usually IC50 stands for the concentration that gives 50% inhibition. Consider `CC(=O)O[C@@H](C/C=C/Cl)[C@@H](C)C(=O)/C=C/CCNC(=O)CC/C=C/C(C)(C)C`, for which the IC50 in test [1] came out at 1.2 µM.
Compound `CC(=O)/C=C/C1=CC[C@H]2[C@@H](C[C@@H]1C)OC(=O)[C@]2(O)CCl` returned an IC50 in [2] of 16 µM.
The MIC is the lowest concentration found to suppress growth. For the compound `CC[C@H](C)[C@H]1O[C@H](CC(C)=O)O[C@@]1(C)/C=C/C1=CC2=C(Cl)C(=O)[C@](C)(O)[C@H](OC(C)=O)[C@H]2CO1`, the minimal inhibitory concentration (MIC) in test [3] was 25 µg/mL (≈ 50.3 µM).
`Oc1cc(Br)cc(Br)c1Oc1cc(Br)c(Br)c(Br)c1Oc1ccc(Br)cc1I`: in test [4], the concentration for half-maximal inhibition (IC50) amounted to 0.7 µM.
Regarding `C/C=C(\C)c1c(Cl)c(O)c(C)c2c1Oc1c(C)c(O)c(Cl)c(/C(C)=C/C)c1C(=O)O2`, the results for the MIC in [5] and in [6] were 1.56 µg/mL and 1.56 µg/mL (≈ 3.47 µM), respectively.
As to `C[C@]12NC(=N)N[C@@]1(O)c1nc(-c3c[nH]c4ccccc34)cnc1-c1c2[nH]c2cc(Br)ccc12`, the MIC was determined as 18.5 µM (≈ 9.26 µg/mL) in test [7] and 37.5 µM (≈ 18.8 µg/mL) in test [8].
For the compound `Cn1cc(Br)cc1C(=O)NC[C@@H]1[C@@H](CNC(=O)c2ccc(Br)[nH]2)Cc2nc(N)[nH]c2[C@H]1c1c[nH]c(N)n1`, the IC50 in test [9] was found to be 33 µM.
`C=C(COC(=O)Cc1ccc(O)c(Cl)c1)[C@@]12O[C@@H]1[C@@]1(C)C(=CC2=O)CC[C@@H](O)[C@@H]1C`: the IC50 in test [10] was found to be 7.3 µM.
Regarding `C=C(C)[C@@H](O)CC/C(C)=C1\CC[C@](C)(Cl)[C@@H](Br)C1`, the minimum inhibitory concentration (MIC) is 4 µg/mL (≈ 11.9 µM) in test [11] and 26.8 µg/mL in test [5].
Regarding `O=Cc1cc(Br)c(O)c(O)c1Cc1ccc(O)c(Br)c1`, the IC50 in test [12] came out at 3.5 µM.
Broadly, the GI50 is the concentration that inhibits growth by half. `CCCC[C@H]1CCCCC[C@@H](OC)c2cc(O)c(c(O)c2)[C@@H](CCCC)CCC[C@@H](Cl)C[C@@H](OC)c2cc(O)c1c(O)c2` came in with a GI50 in test [13] of 0.72 µM.
As for `O=C1Oc2cc(Br)c(O)c(Br)c2/C1=C/c1cc(Br)c(O)c(Br)c1`, the minimum inhibitory concentration (MIC) in test [5] came to 5.2 µM.
On to `CC(C)c1cc(=O)c2c(cc(O)c3c(=O)c4c(O)c(Br)ccc4c(=O)c32)c1=O`, for which the IC50 in test [3] is 0.098 µg/mL (≈ 0.222 µM); in [14], 9.3 µM.
Take `C=C(CCC=C(C)C)[C@]1(O)CC[C@@](C)(Cl)[C@H](Br)C1`: the MIC in test [11] turned out to be 8 µg/mL (≈ 23.8 µM); in [5] it was 15.4 µg/mL.
Regarding `CC(C)[C@@]1(O)/C=C/[C@](C)(O)CC[C@H](Cl)[C@@]2(C)CC[C@H](O2)[C@](C)(O)CC1`, the IC50 in test [15] was determined as 3.67 µM.
As to `COC(=O)/C=C/C(=O)N[C@H](Cc1ccc(O)c(Cl)c1)C(=O)OC`, in test [16], the MIC was determined as 16 µg/mL (≈ 46.8 µM).
In the case of `COc1cc2oc3cc4c(c(OC)c3c(=O)c2c(OC)c1Cl)[C@@H]1C=CO[C@@H]1O4`, the half-inhibitory concentration (IC50) in test [17] came out at 2.9 µM.
In the case of `Cc1c(O)cc2c(c1O)C(=O)C1=C(OC(C)(C)[C@H](Cl)C1)C2=O`, the MIC in test [18], in test [19] and in test [21] was 6.25 µg/mL (≈ 19.4 µM) throughout. Also, in [20], the IC50 was found to be 9.8 µM.
Consider `CC[C@H](C)[C@H]1O[C@@H](CC(C)=O)O[C@@]1(C)/C=C/C1=CC2=C(Cl)C(=O)[C@](C)(O)[C@H](OC(C)=O)[C@H]2CO1`, for which, in test [3], the MIC was found to be 12.5 µg/mL (≈ 25.2 µM).
Turning to `O=C1C=Cc2c3c4c(c(O)ccc4c4ccc(O)c1c24)[C@@H](O)[C@H](Cl)[C@@H]3O`, the MIC in test [8] was 6.25 µM (≈ 2.3 µg/mL).
By EC50 is commonly meant the concentration that produces a half-maximal response. Take `CC(C)(O)C(=O)OC[C@](C)(O)[C@H]1OC2=CC[C@@]3(C)[C@@](O)(CC[C@H]4Cc5c([nH]c6cc(Cl)ccc56)[C@@]43C)C2=CC1=O`: the values for the EC50 in test [22] and in [23] were 4.77 µM and 5.62 µM, respectively.
The compound `CCCC[C@H]1CCCCC[C@@H](O)c2cc(O)c(c(O)c2)[C@@H](CCCC)CCC[C@@H](Cl)C[C@@H](OC)c2cc(O)c1c(O)c2` came in with a 50% growth inhibitory concentration (GI50) in test [13] of 0.72 µM.
For `CC(C)=C(C/C=C(\C)CC[C@@H](Cl)C(C)(C)Cl)C[C@@]1(O)C(=O)c2cc(O)cc(O)c2C(=O)[C@@]1(C)Cl`, the minimal inhibitory concentration (MIC) in test [24], in test [25] and in test [26] was 1 µg/mL (≈ 1.88 µM) throughout.
